Source: patent US20250059162A1, “MULTI-PROTEIN DEGRADATION AGENT HAVING IMIDE SKELETON” (SUZHOU KINTOR PHARMACEUTICALS, INC., priority 2021, published 2025)
pIC50: −log10 of the molar value.

Legend:
Type in all cases: cell-based
GSPT1 protein = molecular target: T1, GSPT1 protein (Homo sapiens, UniProt P15170); experiment: GSPT1 protein degradation in HL60 cells (Western blot)
T1 construct: degradation of myc and GSPT1 proteins in HL60 cells; endogenous in cells; host or cells: HL60
Method: (§1) HL60 cells in the exponential growth phase were digested and plated into a 6-well plate at 1×10^6 cells per well. The cell culture medium was RPMI-1640 (meilunbio, MA0215). After a day of adherent growth of the cells, the compound of the present invention was added as a test drug for culture, and proteins were extracted 24 h later (Ctrl meant adding only DMSO at the same volume).
(§2) In the 6-well plate, the culture medium RPMI-1640 (meilunbio, MA0215) was removed, and the cells were washed once with PBS, digested with trypsin, and centrifuged and collected separately into 1.5 mL centrifuge tubes. 100 μL of RIPA lysis buffer (containing 100 μM PMSF) was added to each tube, mixed thoroughly, allowed to stand on ice for 30 min and then centrifuged at 12000 rpm at 4° C. using a centrifuge for 20 min. The supernatant was used for Western blotting experiments. The sample can be stored at −80° C.
(§3) By using the BCA protein concentration determination kit (from Thermo Fisher, Cat. No. 23225), the BSA standard determination solution and the samples to be tested (the samples to be tested can be diluted and then tested) were prepared according to the table A below. Samples were added to the 96-well plate. Each well was supplemented with PBS to 20 μL, and then 200 μL of BCA working solution (prepared according to the kit) was added respectively and mixed evenly. The plate was placed at 60° C. for 10 min, and then the absorbance at 562 nm was detected. After the reading was recorded, a standard curve was plotted using concentration gradients of the standards, and the absorbance of the samples was substituted to calculate the protein concentration of the samples.
(§4) • 2.1 Protein denaturation: RIPA protein buffer (purchased from Solarbio, Cat. No. R0010) and 5× Loading Buffer (SDS, glycerin, bromophenol blue, TRIS) (purchased from Solarbio, Cat. No. P1040) were added, and the protein samples were denatured at 100° C. for 5 min. • 2.2 Sample loading and electrophoresis: 10% precast gel and the corresponding electrophoresis buffer were used. The same mass of protein sample and protein ladder (purchased from thermo, Cat. No. 26617) were loaded into each well, and electrophoresis at 200 V was performed for 30 min. • 2.3 […]: The gel was excised to remove the excess part. Transferring to PVDF membrane was performed by the wet transfer method (before use, it was necessary to activate the PVDF membrane with methanol for 1 min) at 300 mA for 2 h, during which a lot of heat was generated, and thus cooling with an ice box was required. • 2.4 Blocking: After the transferring, the PVDF membrane was placed in 5% skim milk and blocked with shaking at room temperature for 1 h. • 2.5 Incubating with primary antibody: The PVDF membrane was cut according to the molecular weight indicated on the marker and placed in c-myc (purchased from abcam, Cat. No. ab32072), or GSPT1 (purchased from abcam, Cat. No. ab234433), or CK1α (purchased from abcam, Cat. No. ab206652), or IKZF2 (purchased from proteintech, Cat. No. 13554-1-AP), and GAPDH (purchased from CST, Cat. No. #97166) primary antibodies. The antibodies were diluted with TBST buffer (a solution prepared from TRIS, KCL and NaCl and adjusted to pH 7.4 with hydrochloric acid, and Tween 20 was added) at a ratio of 1:1000, and blocked overnight on a shaker at 4° C. • 2.6 Incubating with secondary antibody: The PVDF membrane incubated with the primary antibody was washed with TBST for 3 times, each time for 10 min. After washing, the membrane was placed in the secondary antibody of the corresponding species, and incubated at room temperature in a shaker for 2 h. • 2.7 Washing membrane and exposure: After incubated with the secondary antibodies, the membrane was washed 3 times with TBST on a shaker, 10 minutes each time. […]

c-Myc protein = molecular target: T2, c-Myc protein (Homo sapiens, UniProt P01106); experiment: c-Myc protein degradation in HL60 cells (Western blot); details: for remaining activity at 0.01 µM: HL-60, compound at 10 nM, 24 h, gray value relative to Ctrl (DMSO), read-out: Remaining amount of c-Myc protein (@10 nM/Ctrl)
T2 construct: degradation of myc and GSPT1 proteins in HL60 cells; endogenous in cells; host or cells: HL60
T2 sequence (P01106 whole entry): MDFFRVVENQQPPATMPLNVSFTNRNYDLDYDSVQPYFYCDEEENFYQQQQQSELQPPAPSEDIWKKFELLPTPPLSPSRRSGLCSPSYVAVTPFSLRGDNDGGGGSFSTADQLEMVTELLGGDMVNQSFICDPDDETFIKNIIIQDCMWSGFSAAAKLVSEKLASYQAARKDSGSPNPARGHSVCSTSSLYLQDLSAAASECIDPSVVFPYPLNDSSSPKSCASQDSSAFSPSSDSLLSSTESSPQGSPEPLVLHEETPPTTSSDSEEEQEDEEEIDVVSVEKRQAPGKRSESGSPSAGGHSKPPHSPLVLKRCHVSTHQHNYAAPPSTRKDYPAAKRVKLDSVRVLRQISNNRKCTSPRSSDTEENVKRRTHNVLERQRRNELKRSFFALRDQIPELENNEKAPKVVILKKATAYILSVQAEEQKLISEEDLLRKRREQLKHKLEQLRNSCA
Method: as §1, §2, §3, §4

HL60 cells = experiment: Anti-proliferation on HL60 cells (CellTiter-Glo, 3 days); details: Homo sapiens, HL-60, 72 h, 3 days incubation, CTG luminescence, IC50 by XLfit, read-out: HL60 cells Proliferation inhibitory activity
Method: HL60 cells (Cell Bank of Chinese Academy of Sciences) in the logarithmic growth phase were counted and plated evenly in a 96-well transparent bottom white plate at 20000 cells per well and 100 μL per well.
A certain amount of the compound of the present invention was weighed and diluted with DMSO to a 10 mM stock solution. The culture medium RPMI-1640 (meilunbio, MA0215) corresponding to the cells were taken, and the compound was diluted to the concentration required by the test, shaken gently and mixed evenly. 50 μL of the gradient dilution of the diluted compound was added to each well of the plated cells, and 50 μL of 0.1% DMSO was added to the control group. The plate was shaken gently, mixed evenly and incubated in a cell culture incubator for 3 days.
• 3.1 The CellTiter-Glo™ (CTG) (purchased from Promega, Cat. No. G9242) reagent was taken in advance from the −20° C. refrigerator and equilibrated to room temperature in the dark. Cell Titer-Glo buffer and Cell Titer-Glo substrate were mixed at a ratio of 1:1 to prepare a CTG detection reagent. • 3.2 The 96-well plate was taken out and inspected under a microscope for growth. • 3.3 The bottom of the 96-well plate was tagged with white paper, and then the plate was wrapped with tin foil paper, shaken at 37° C. at 300 r for 10 min and mixed evenly. • 3.4. 50 μL of CTG detection reagent was added to each well, Luminescence signal was detected using a microplate reader Biotek Synergy Hi, and the inhibition rate was calculated. IC50 values of the compounds were calculated by XLfit 5.5.0 software to evaluate the proliferation inhibitory activity on HL60 cells.

T1 sequence (P15170 whole entry): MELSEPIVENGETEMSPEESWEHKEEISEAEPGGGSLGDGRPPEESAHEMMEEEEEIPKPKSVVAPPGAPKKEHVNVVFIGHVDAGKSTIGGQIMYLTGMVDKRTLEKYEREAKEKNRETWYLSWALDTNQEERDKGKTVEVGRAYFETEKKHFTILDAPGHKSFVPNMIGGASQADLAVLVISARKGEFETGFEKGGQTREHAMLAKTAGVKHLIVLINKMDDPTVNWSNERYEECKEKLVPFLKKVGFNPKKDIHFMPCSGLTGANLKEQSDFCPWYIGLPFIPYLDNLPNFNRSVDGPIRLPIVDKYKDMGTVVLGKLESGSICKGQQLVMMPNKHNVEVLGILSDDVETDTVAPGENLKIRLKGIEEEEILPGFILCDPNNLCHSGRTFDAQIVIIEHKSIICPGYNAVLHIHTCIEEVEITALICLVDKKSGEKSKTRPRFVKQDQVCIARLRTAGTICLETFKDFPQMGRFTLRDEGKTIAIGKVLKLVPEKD

SMILES | remaining activity at 0.01 µM (c-Myc protein) [%] | pIC50 (HL60 cells) | other results
N#Cc1cc(-c2cccc(Cl)c2)cnc1N1CCC(CNCc2ccc3c(c2)CN(C2CCC(=O)NC2=O)C3=O)CC1 (stereo not shown) [Compound A98] | 157 | 9.00 | remaining GSPT1 protein at 0.01 µM (GSPT1 protein; HL-60, compound at 10 nM, 24 h, gray value relative to Ctrl (DMSO), read-out: Remaining amount of GSPT1 protein (@10 nM/Ctrl)): 3%
O=C1CCC(N2Cc3cc(NCCC4CCN(c5ncc(-c6cccc(Cl)c6)cc5C(F)(F)F)CC4)ccc3C2=O)C(=O)N1 (stereo not shown) [Compound A131] | – | 7.45 | Degradation of GSPT1 protein in HL60 cells at 100 nM (FIG. 3, in words) (GSPT1 protein; 100 nM): significantly degrade GSPT1 protein; Degradation of GSPT1 protein in HL60 cells at 300 nM (FIG. 2, FIG. 3, in words) (GSPT1 protein): simultaneously degrade both GSPT1 and c-Myc proteins; Degradation of c-Myc protein in HL60 cells at 300 nM (FIG. 2, FIG. 3, in words) (c-Myc protein; 300 nM): simultaneously degrade both GSPT1 and c-Myc proteins
O=C1CCC(n2nc3cc(CNCC4CCN(c5ncc(-c6cccc(Cl)c6)cc5C(F)(F)F)CC4)ccn3c2=O)C(=O)N1 (stereo not shown) [Compound A146] | – | 6.86 | Degradation of GSPT1 protein in HL60 cells at 300 nM (FIG. 2, FIG. 3, in words) (GSPT1 protein): significantly degrade GSPT1 protein
O=C1CCC(N2Cc3cc(NC(=O)CC4CCN(c5ncc(-c6cccc7ccccc67)cn5)CC4)ccc3C2=O)C(=O)N1 (stereo not shown) [Compound A30] | 14 | > 9.70 | –
O=C1CCC(N2Cc3cc(NC(=O)CC4CCN(c5ccc(-c6cccc7ccccc67)nc5)CC4)ccc3C2=O)C(=O)N1 (stereo not shown) [Compound A37] | 44 | 9.70 | –
O=C1CCC(N2Cc3cc(CNCC4CCN(c5ncc(-c6cccc(Cl)c6)cn5)CC4)ccc3C2=O)C(=O)N1 (stereo not shown) [Compound A66] | 9 | > 9.70 | –
O=C1CCC(N2Cc3cc(NC(=O)CC4CCN(c5ccc(-c6cccc7cccc(F)c67)cn5)CC4)ccc3C2=O)C(=O)N1 (stereo not shown) [Compound A47] | 19 | > 9.70 | –
O=C1CCC(N2Cc3ccc(CNCC4CCN(c5ncc(-c6cccc(Cl)c6)cc5C(F)(F)F)CC4)cc3C2)C(=O)N1 (stereo not shown) [Compound A145] | – | 6.41 | Degradation of GSPT1 protein in HL60 cells at 300 nM (FIG. 2, FIG. 3, in words) (GSPT1 protein): significantly degrade GSPT1 protein
O=C1CCC(N2Cc3cc(NC(=O)CC4CCN(c5cc(-c6cccc7ccccc67)ccn5)CC4)ccc3C2=O)C(=O)N1 (stereo not shown) [Compound A17] | 23 | 8.92 | –
O=C1CCC(N2Cc3cc(C(=O)NCC4CCN(c5ncc(-c6cccc7ccccc67)cn5)CC4)ccc3C2=O)C(=O)N1 (stereo not shown) [Compound A29] | 13 | 9.70 | –
O=C1CCC(N2Cc3cc(NC(=O)CC4CCN(c5ncc(-c6cccc(Cl)c6)cn5)CC4)ccc3C2=O)C(=O)N1 (stereo not shown) [Compound A53] | 10 | > 9.70 | –
O=C1CCC(N2Cc3cc(NC(=O)CC4CCN(c5ncc(-c6cccc7ccccc67)o5)CC4)ccc3C2=O)C(=O)N1 (stereo not shown) [Compound A28] | 43 | 9.05 | –
O=C1CCC(N2Cc3cc(NC(=O)CC4CCN(c5ncc(-c6cccc7ccccc67)s5)CC4)ccc3C2=O)C(=O)N1 (stereo not shown) [Compound A24] | 0 | 9.30 | –
O=C1CCC(NC(=O)c2ccc(CNCC3CCN(c4ncc(-c5cccc(Cl)c5)cc4C(F)(F)F)CC3)c(F)c2)C(=O)N1 (stereo not shown) [Compound A159] | – | 5.17 | –
CN(C)c1cccc(-c2cnc(N3CCC(CNCc4ccc5c(c4)CN(C4CCC(=O)NC4=O)C5=O)CC3)c(C(F)(F)F)c2)c1 (stereo not shown) [Compound A97] | – | 9.40 | –
O=C1CCC(N2Cc3cc(NC(=O)CC4CCN(c5ncc(C6CC6)cn5)CC4)ccc3C2=O)C(=O)N1 (stereo not shown) [Compound A49] | – | 8.82 | –

SMILES | remaining activity at 0.01 µM (c-Myc protein) [%] | pIC50 (HL60 cells) | other results
O=C1CCC(N2Cc3cc(NC(=O)CC4CCN(c5ccc(-c6cccc7ccccc67)nn5)CC4)ccc3C2=O)C(=O)N1 (stereo not shown) [Compound A32] | – | 7.92 | –
O=C1CCC(N2Cc3cc(C(=O)NCC4CCN(c5ccc(-c6cccc7cccnc67)cn5)CC4)ccc3C2=O)C(=O)N1 (stereo not shown) [Compound A42] | – | 9.70 | –
O=C1CCC(N2Cc3cc(NC(=O)CC4CCN(C(=O)Cn5c6ccccc6c6cccnc65)CC4)ccc3C2=O)C(=O)N1 (stereo not shown) [Compound A11] | – | 7.41 | –
O=C1CCC(N2Cc3cc(CNCC4CCN(c5cc(F)c(-c6cccc(Cl)c6)cn5)CC4)ccc3C2=O)C(=O)N1 (stereo not shown) [Compound A101] | – | 7.96 | –
O=C1CCC(n2nnc3ccc(CNCC4CCN(c5ncc(-c6cccc(Cl)c6)cc5C(F)(F)F)CC4)cc3c2=O)C(=O)N1 (stereo not shown) [Compound A154] | – | 6.94 | –
O=C1CCC(N2Cc3cc(C(=O)NCC4CCN(c5ccc(-c6ccc7ccccc7c6)cn5)CC4)ccc3C2=O)C(=O)N1 (stereo not shown) [Compound A40] | – | 8.37 | –
O=C(CN1CCC(CC(=O)Nc2ccc3c(c2)CN(C2CCC(=O)NC2=O)C3=O)CC1)NCCc1cccc2ccccc12 (stereo not shown) [Compound A10] | – | 8.13 | –
O=C1CCC(NC(=O)c2ccc(CNCC3CCN(c4ncc(-c5cccc(Cl)c5)cc4C(F)(F)F)CC3)nc2)C(=O)N1 (stereo not shown) [Compound A157] | – | 4.93 | –
O=C1CCC(N2Cc3cc(C(=O)NCC4CCN(c5nccc(-c6ccc7ccccc7c6)n5)CC4)ccc3C2=O)C(=O)N1 (stereo not shown) [Compound A38] | 52 | 9.05 | –
O=C1CCC(N2C(=O)c3cccc4c(CNCC5CCN(c6ncc(-c7cccc(F)c7)cc6F)CC5)ccc2c34)C(=O)N1 (stereo not shown) [Compound A175] | – | 4.94 | –
O=C1CCC(N2Cc3cc(NC(=O)CC4CCN(c5ncc(-c6ccc(Cl)cc6)cn5)CC4)ccc3C2=O)C(=O)N1 (stereo not shown) [Compound A55] | – | > 9.70 | –
O=C1CCC(N2Cc3cc(NC(=O)CC4CCN(c5nccc(-c6cccc7ccccc67)n5)CC4)ccc3C2=O)C(=O)N1 (stereo not shown) [Compound A13] | – | 8.19 | –
O=C1CCC(N2Cc3cc(NC(=O)CC4CCN(c5ncc(Br)cn5)CC4)ccc3C2=O)C(=O)N1 (stereo not shown) [Compound A48] | – | 8.39 | –
O=C1CCC(N2Cc3cc(NC(=O)CC4CCN(c5ccc(-c6cccc7cccnc67)cn5)CC4)ccc3C2=O)C(=O)N1 (stereo not shown) [Compound A43] | 23 | > 9.70 | –
O=C1CCC(N2Cc3cc(C(=O)NCC4CCN(c5cccc(-c6cccc7ccccc67)n5)CC4)ccc3C2=O)C(=O)N1 (stereo not shown) [Compound A14] | – | 9.05 | –
